Measured values reported in article PMC12373995 (Nature Communications, 2025).
Peptide text beside a SMILES is read from it. * marks the point of attachment. Cbz = O=C(OCc1ccccc1)*

Assays:
ERα = molecular target: T1, ERα (Homo sapiens, UniProt P03372); assay type: cell-based; conditions: MCF-7 and T47D, with Bufalin
T1 sequence (P03372 1-595): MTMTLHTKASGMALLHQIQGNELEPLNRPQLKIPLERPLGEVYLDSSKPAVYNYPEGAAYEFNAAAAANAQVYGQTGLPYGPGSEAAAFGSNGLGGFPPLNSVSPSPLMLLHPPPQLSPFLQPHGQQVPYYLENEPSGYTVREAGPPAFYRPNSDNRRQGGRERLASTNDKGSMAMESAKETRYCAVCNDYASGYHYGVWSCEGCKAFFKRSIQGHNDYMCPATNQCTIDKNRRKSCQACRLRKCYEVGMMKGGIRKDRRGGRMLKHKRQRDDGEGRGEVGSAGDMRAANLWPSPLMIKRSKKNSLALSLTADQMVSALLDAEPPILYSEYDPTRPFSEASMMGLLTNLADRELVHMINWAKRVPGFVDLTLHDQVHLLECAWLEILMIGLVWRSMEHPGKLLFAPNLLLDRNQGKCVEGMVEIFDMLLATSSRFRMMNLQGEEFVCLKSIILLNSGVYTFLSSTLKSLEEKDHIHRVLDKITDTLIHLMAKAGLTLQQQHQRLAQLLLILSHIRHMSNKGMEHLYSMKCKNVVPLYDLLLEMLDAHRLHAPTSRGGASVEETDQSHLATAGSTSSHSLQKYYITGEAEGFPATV

LCC2 xenografts = test: Tamoxifen-resistant LCC2 xenografts in nude mice; assay type: in vivo
PARP and Bcl-2 = PARP and Bcl-2 by western blot, LCC2; assay type: cell-based, human; conditions: LCC2, 50 or 100 nM, 48 h
[1] = Serum markers of liver and kidney function in tumor-bearing mice; assay type: in vivo; conditions: therapeutic doses
[2] = tested on: ERα transcriptional activity (ERE); test: ERE-luciferase assay, MCF-7; assay type: cell-based, human; conditions: Fig. 3i, MCF-7 and T47D
MCF-7 cells = test: CCK-8 cell viability, MCF-7; assay type: cell-based, human; conditions: MCF-7 and T47D, Supplementary Fig. 1e–g
[3] = tested on: Tamoxifen-resistant patient-derived organoids (PDOs); test: Organoid live/dead staining; assay type: cell-based, human; conditions: PDO
ESR1 mRNA [4] = test: Real-time PCR of ESR1 mRNA, MCF-7; assay type: cell-based, human; conditions: MCF-7, Supplementary Fig. 1a
ESR1 mRNA [5] = test: Real-time PCR of ESR1 mRNA, T47D; assay type: cell-based, human; conditions: Supplementary Fig. 1b
[6] = tested on: Tamoxifen-resistant cells LCC2; test: CCK-8 cell viability, LCC2; assay type: cell-based, human; conditions: LCC2, Fig. 7h, i

Row | Structure (SMILES) | Effect of co-treatment on Bufalin-induced ERα decrease (ERα) | ERα protein expression in tumors (LCC2 xenografts; IHC and western blot) | Anti-tumor activity compared with Fulvestrant (LCC2 xenografts; LCC2 xenografts) | Ki67 in tumors (IHC) (LCC2 xenografts; LCC2 xenografts) | Tumor volumes and weights (LCC2 xenografts; intraperitoneal injection) | Apoptosis markers PARP and Bcl-2 (PARP and Bcl-2) | Toxicity by serum liver and kidney markers [1] | Transcriptional activity of ERα (ERE luciferase) [2] | Anti-cancer effects compared with Fulvestrant (MCF-7 cells) | Cell death by Calcein-AM/PI staining [3] | mRNA of ERα (ESR1 mRNA [4]) | mRNA of ERα (ESR1 mRNA [5]) | Anti-cancer effects compared with Fulvestrant [6]
1 | NS(=O)(=O)OC[C@@H]1C[C@@H](n2ccc3c(N[C@H]4CCc5ccccc54)ncnc32)C[C@@H]1O [MLN4924] | reversed the Bufalin-mediated downregulation of ERα | – | – | – | – | – | – | – | – | – | – | – | –
2 | CC(C)C[C@@H](C=O)NC(=O)[C@H](CC(C)C)NC(=O)[C@H](CC(C)C)NC(=O)OCc1ccccc1 [MG-132] (Cbz-Leu-Leu-Leu-aldehyde) | effectively prevented the Bufalin-induced decrease in ERα protein levels | – | – | – | – | – | – | – | – | – | – | – | –
3 | C[C@]12CC[C@H](O)C[C@H]1CC[C@@H]1[C@@H]2CC[C@]2(C)[C@@H](c3ccc(=O)oc3)CC[C@]12O [Bufalin] | – | the protein expression of ERα was decreased | superior anti-tumor activity to Fulvestrant | marked Ki67 suppression | the tumor volumes and weights significantly decreased | PARP cleavage, and Bcl-2 downregulation | no significant signs of drug-induced toxicity | weakened the transcriptional activity of ERα | stronger anti-cancer effects than Fulvestrant | extensive cell death | no obvious change | no obvious change | better anti-cancer effects than Fulvestrant
